From patent US6413995B1, “Cinnamamide derivatives and drug compositions containing the same” (Tsumura & Co., priority 1999, dated 2002)
Where two headings read alike, the source gives them in different places.

Tests used:
IL-12 = assay: Inhibition of IL-12 production by mouse peritoneal macrophages (ELISA); type: cell-based, mice; settings: Macrophage, 48 hours, read-out: Inhibitory rate (%) IL-12; for inhibition at 10 µM: 10 μM/L
Procedure: (§1) C57BL/6CrSlc male mice were intraperitoneally injected with 2.0 ml of 3% Brewer tioglycolate medium. Three days later, macrophages were collected from the abdominal cavity with 5.0 ml Hank's balanced salt solution, and then equally divided into each well of a 48-well plate using RPMI 1640 medium supplemented with 10% FBS (Fetal Bovine Serum), followed by incubation in a CO2 incubator for 1 hour. After the macrophages adhered to the walls of the plate, they were incubated for 48 hours in the presence of a test compound with different concentrations. Following the incubation, the supernatant was collected from each well, assayed for IL-6, IL-10 and L-12 by ELISA to determine inhibitory rates against the production of these interleukins.

IL-10 = assay: Inhibition of IL-10 production by mouse peritoneal macrophages (ELISA); type: cell-based, mice; settings: Macrophage, 48 hours, read-out: Inhibitory rate (%) IL-10
Procedure: as §1

IL-6 = assay: Inhibition of IL-6 production by mouse peritoneal macrophages (ELISA); type: cell-based, mice; settings: Macrophage, 48 hours, read-out: Inhibitory rate (%) IL-6
Procedure: as §1

[1] = tested on: Rats with Minimal Change Nephrosis; assay: Inhibitory effects on urinary proteins in rats with minimal change nephrosis (Puromycin Aminonucleoside); type: in vivo; settings: S.D. male rats, PA 50 mg/kg i.v., test drug 2 mg/kg/day from day 6 to day 11, assayed at day 11
Procedure: Six week old S.D. male rats were intravenously injected with Puromycin Aminonucleoside (PA; SIGMA)at a dose of 50 mg/kg so as to develop nephrosis. Six days after PA treatment, the rats were administered with a test drug at a dose of 2 mg/kg/day by day 11. Each rat was assayed for an excreted urinary protein level at day 11 to determine an inhibitory rate.

Thromboxane A2 Synthase = biological target: T1, Thromboxane A2 Synthase (Rattus norvegicus, UniProt P49430); assay: Inhibitory effect on thromboxane A2 synthase: TXB2 in rat platelet rich plasma; type: cell-based, rats; settings: 10 μmol/l, rat PRP
T1 construct: centrifuged at 1,300 rpm for 7 minutes to obtain platelet rich plasma (PRP); from tissue; host or cells: platelet rich plasma (washed platelets) from the abdominal aorta blood of Sprague-Dawley rats
T1 sequence (P49430 1-533): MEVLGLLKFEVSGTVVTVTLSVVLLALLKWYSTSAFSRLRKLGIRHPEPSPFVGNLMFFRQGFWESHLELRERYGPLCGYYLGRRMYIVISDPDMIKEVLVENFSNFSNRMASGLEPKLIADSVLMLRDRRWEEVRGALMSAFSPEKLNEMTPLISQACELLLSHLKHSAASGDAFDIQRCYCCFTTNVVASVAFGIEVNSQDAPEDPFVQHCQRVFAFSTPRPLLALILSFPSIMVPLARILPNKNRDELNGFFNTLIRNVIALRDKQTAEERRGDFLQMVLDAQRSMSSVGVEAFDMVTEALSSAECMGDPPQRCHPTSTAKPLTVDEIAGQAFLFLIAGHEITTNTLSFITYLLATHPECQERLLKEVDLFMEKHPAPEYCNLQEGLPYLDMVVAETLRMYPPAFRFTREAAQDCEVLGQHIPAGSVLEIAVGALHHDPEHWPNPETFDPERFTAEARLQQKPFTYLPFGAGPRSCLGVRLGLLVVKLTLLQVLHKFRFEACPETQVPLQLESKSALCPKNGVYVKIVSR
Procedure: Eight week old Sprague-Dawley male rats were used in this example. The rats were anesthetized with pentobarbital sodium. The blood was collected from the abdominal aorta using a heparinized syringe, and centrifuged at 1,300 rpm for 7 minutes to obtain platelet rich plasma (PRP). PRP was suspended in an equivalent volume of a buffer containing 25 mmol/l Tris-HCl, 130 mmol/l sodium chloride and 0.3 mmol/l EDTA (pH 7.4)(buffer A), followed by centrifugation at 4° C., at 1,500 rpm for 5 minutes. This procedure was repeated twice, and PRP was finally suspended in a buffer containing 25 mmol/l Tris-HCl, 130 mmol/l, 0.1% glucose and 0.1% albumin (pH7.4)(buffer B).
5×10^6 cells/mm^3 PRP preparation in buffer B was divided into each well of a 96-well plate in an amount of 150 μl/well. Each test substance was prepared at a final concentration of 10 μmol/l and added to the PRP preparation in an amount of 50 μl/well. Immediately after addition of the test substance, 5 μl of an aggregation-inducing agent, type IV collagen (1 mg/ml) or arachidonic acid (50 mmol/l), was added and incubated for 10 minutes. 20 μl of an EDTA-indomethacin solution was added to the each well to stop the reaction. The supernatant was assayed for thromboxane B2 (TXB2), stable metabolite of thromboxane A2 (TXA2), using a TXB2 measurement kit (Cayman).

## C/C(=C\C(=O)NCc1cccnc1)c1ccc(OCC(=O)O)cc1 [Example 86, [4-[(E)-1-methyl-2-[N-(3-pyridylmethyl)carbamoyl]ethenyl]phenoxy]acetic acid]
IL-12
  inhibition at 10 µM: 48.4%
other
  melting point: 228 to 229 °C

## CCOC(=O)COc1ccc(/C=C/C(=O)NCc2cccnc2)cc1 [Example 1, Ethyl [4-[(E)-2-[N-(3-Pyridylmethyl)carbamoyl]ethenyl]phenoxy]acetate]
IL-10; 1 μg/ml
  inhibition at 1 µg/mL: 2.1%
IL-10; 5 μg/ml
  inhibition at 5 µg/mL: 29.1%
IL-10; 10 μg/ml
  inhibition at 10 µg/mL: 23.7%
IL-12; 1 μg/ml
  inhibition at 1 µg/mL: 32.4%
IL-12; 5 μg/ml
  inhibition at 5 µg/mL: 39.5%
IL-12; 10 μg/ml
  inhibition at 10 µg/mL: 64.6%
IL-6; 1 μg/ml
  inhibition at 1 µg/mL: 29.3%
IL-6; 5 μg/ml
  inhibition at 5 µg/mL: 34.5%
IL-6; 10 μg/ml
  inhibition at 10 µg/mL: 40.4%
[1]
  Inhibitory rate (%) of excreted urinary protein level: 41%
Thromboxane A2 Synthase; arachidonic acid, 10 minutes, read-out: TXB2 induced by arachidonic acid (Inhibitory rate; %)
  inhibition at 10 µM: 67%
Thromboxane A2 Synthase; type IV collagen, 10 minutes, read-out: TXB2 induced by collagen (Inhibitory rate; %)
  inhibition at 10 µM: 32%
Thromboxane A2 Synthase; summary of Table 3, read-out: inhibitory activity against TXA2 production mediated by collagen or arachidonate
  inhibition at 10 µM: ≥ 50%

## O=C(O)CSc1ccc(/C=C/C(=O)NCc2cccnc2)cc1 [Example 89, [[4-[(E)-2-[N-(3-pyridylmethyl)carbamoyl]ethenyl]phenyl]thio]acetic acid]
IL-12
  inhibition at 10 µM: 51.1%
other
  melting point: 160 to 161 °C

## Cl.O=C(O)CCc1ccc(/C=C/C(=O)NCc2cccnc2)cc1
other
  melting point: 212 °C
